Laboratory results as given in PubChem BioAssay AID328 (DTP/NCI, 2004).
Where “and” joins values, the source holds several entries; their conditions need not be identical. Equal values may be shown once. Toxic doses and inconclusive results are not listed. Rule for the calls: active = survival T/C of 150% or more; inactive = T/C below 125% in these data.

Test system: BDF1 mice, P388 leukemia ip, median survival T/C
Assay: NCI In Vivo Anticancer Drug Screen. Data for tumor model P388 Leukemia (intraperitoneal) in B6D2F1 (BDF1) mice
Conditions: endpoint: median survival time, higher = longer survival
Outline: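 Steps: implant the tumour, treat one group with compound and another with vehicle, record survival, then divide treated by control.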

[1] = dose: 25.0 mg/kg/injection, schedule: Q01DX009 (ip), vehicle: saline with Tween-80
[2] = dose: 50.0 mg/kg/injection, schedule: Q01DX009 (ip), vehicle: saline with Tween-80
[3] = dose: 100.0 mg/kg/injection, schedule: Q01DX009 (ip), vehicle: saline with Tween-80
[4] = dose: 100.0 mg/kg/injection, schedule: Q04DX003 (ip), vehicle: saline with Tween-80
[5] = dose: 200.0 mg/kg/injection, schedule: Q04DX003 (ip), vehicle: saline with Tween-80
[6] = dose: 400.0 mg/kg/injection, schedule: Q04DX003 (ip), vehicle: saline with Tween-80
[7] = dose: 8.0 mg/kg/injection, schedule: Q01DX009 (ip), vehicle: saline with Tween-80
[8] = dose: 12.0 mg/kg/injection, schedule: Q01DX009 (ip), vehicle: saline with Tween-80
[9] = dose: 18.0 mg/kg/injection, schedule: Q01DX009 (ip), vehicle: saline with Tween-80
[10] = dose: 25.0 mg/kg/injection, schedule: Q04DX003 (ip), vehicle: saline with Tween-80
[11] = dose: 400.0 mg/kg/injection, schedule: Q01DX009 (ip), vehicle: saline with Tween-80
[12] = dose: 200.0 mg/kg/injection, schedule: Q01DX009 (ip), vehicle: saline with Tween-80

Measured: T/C

CCCCCCCCCC(=O)OCC1OC(=O)C(C)N(C)C(=O)CN(C)C(=O)C2C(=O)CC(C)N2C(=O)C(C(C)C)NC(=O)C1NC(=O)c1c2nc3c(C(=O)NC4C(=O)NC(C(C)C)C(=O)N5C(C)CC(OC(=O)CCCCCCCCC)C5C(=O)N(C)CC(=O)N(C)C(C(C)C)C(=O)OC4C)ccc(C)c3oc-2c(C)c(=O)c1N (centres undefined)
inactive: dose: 0.1 mg/kg/injection, schedule: Q01DX009 (ip), vehicle: saline with Tween-80 105 % of control | dose: 0.2 mg/kg/injection, schedule: Q01DX009 (ip), vehicle: saline with Tween-80 93 % of control | dose: 0.3 mg/kg/injection, schedule: Q04DX003 (ip), vehicle: saline with Tween-80 107 % of control | dose: 0.4 mg/kg/injection, schedule: Q01DX009 (ip), vehicle: saline with Tween-80 89 % of control | dose: 0.6 mg/kg/injection, schedule: Q04DX003 (ip), vehicle: saline with Tween-80 92 % of control | dose: 0.8 mg/kg/injection, schedule: Q01DX001 (ip), vehicle: saline with Tween-80 98 % of control | dose: 0.8 mg/kg/injection, schedule: Q01DX009 (ip), vehicle: saline with Tween-80 96 % of control | dose: 1.6 mg/kg/injection, schedule: Q01DX001 (ip), vehicle: saline with Tween-80 107 % of control | dose: 1.6 mg/kg/injection, schedule: Q01DX009 (ip), vehicle: saline with Tween-80 117 % of control | dose: 2.4 mg/kg/injection, schedule: Q04DX003 (ip), vehicle: saline with Tween-80 96 % of control | dose: 3.2 mg/kg/injection, schedule: Q01DX001 (ip), vehicle: saline with Tween-80 100 % of control | dose: 4.8 mg/kg/injection, schedule: Q04DX003 (ip), vehicle: saline with Tween-80 92 % of control | dose: 6.4 mg/kg/injection, schedule: Q01DX001 (ip), vehicle: saline with Tween-80 100 % of control | dose: 12.8 mg/kg/injection, schedule: Q01DX001 (ip), vehicle: saline with Tween-80 97 % of control

CC(C)CSc1ncnc2nc[nH]c12
inactive: [1] 90 % of control | [2] 100 % of control | [3] 104 % of control and 122 % of control | [4] 104 % of control | [5] 86 % of control | [6] 86 % of control

O=C1CC=Nc2ccc([N+](=O)[O-])cc21
inactive: dose: 100.0 mg/kg/injection, schedule: Q04DX003 (ip), vehicle: Klucel (hydroxypropylcellulose) (HPC) 100 % of control | dose: 200.0 mg/kg/injection, schedule: Q04DX003 (ip), vehicle: Klucel (hydroxypropylcellulose) (HPC) 90 % of control | dose: 400.0 mg/kg/injection, schedule: Q04DX003 (ip), vehicle: Klucel (hydroxypropylcellulose) (HPC) 95 % of control

O=C1N=C2C=CC=CN2CC1O (centres undefined)
inactive: [4] 104 % of control | [5] 112 % of control | [6] 100 % of control

CN=C(N)c1ccc(N=C(N)c2ccc(N=C(N)c3ccc(NC(=O)Nc4ccc(NC(=O)Nc5ccc(C(N)=Nc6ccc(C(N)=Nc7ccc(C(N)=NC)cc7)cc6)cc5)cc4)cc3)cc2)cc1
inactive: [9] 92 % of control | [1] 109 % of control
active: dose: 3.0 mg/kg/injection, schedule: Q01DX009 (ip), vehicle: saline with Tween-80 162 % of control | dose: 5.0 mg/kg/injection, schedule: Q01DX009 (ip), vehicle: saline with Tween-80 183 % of control | [7] 230 % of control and 162 % of control | [8] 150 % of control | dose: 12.0 mg/kg/injection, schedule: Q04DX003 (ip), vehicle: saline with Tween-80 250 % of control | dose: 18.0 mg/kg/injection, schedule: Q04DX003 (ip), vehicle: saline with Tween-80 213 % of control and 216 % of control | [10] 250 % of control and 204 % of control | dose: 37.0 mg/kg/injection, schedule: Q04DX003 (ip), vehicle: saline with Tween-80 170 % of control

O=C1NC(=O)C(CSCc2ccccc2)(CSCc2ccccc2)N1
inactive: dose: 3.12 mg/kg/injection, schedule: Q04DX003 (ip), vehicle: saline with Tween-80 101 % of control | dose: 6.25 mg/kg/injection, schedule: Q04DX003 (ip), vehicle: saline with Tween-80 102 % of control | dose: 12.5 mg/kg/injection, schedule: Q04DX003 (ip), vehicle: saline with Tween-80 99 % of control | [1] 99 % of control | [10] 98 % of control | [2] 107 % of control | [3] 92 % of control | [11] 86 % of control

CC(C)(C1c2ccccc2C(=NO)c2ccccc21)[N+](=O)[O-] (centres undefined)
inactive: [3] 109 % of control | [4] 91 % of control | [12] 90 % of control | [5] 100 % of control | [11] 100 % of control | [6] 91 % of control

CCN(CCP(c1ccccc1)c1ccccc1)CCP(c1ccccc1)c1ccccc1
active: dose: 66.0 mg/kg/injection, schedule: Q04DX003 (ip), vehicle: saline with Tween-80 150 % of control | [4] 159 % of control
inactive: [2] 86 % of control

Nc1ccccc1N
inactive: [1] 92 % of control and 100 % of control | [2] 100 % of control | [12] 97 % of control

CC(c1ccccc1)[n+]1ccccc1C1OCCO1 (centres undefined)
inactive: dose: 6.25 mg/kg/injection, schedule: Q04DX003 (ip), vehicle: saline 100 % of control | dose: 12.5 mg/kg/injection, schedule: Q04DX003 (ip), vehicle: saline 97 % of control

Nc1nc(-c2c[nH]c(=O)[nH]c2=O)cs1
inactive: [2] 103 % of control | [3] 98 % of control

NC(=O)Oc1ccccc1
inactive: [3] 104 % of control | [12] 109 % of control | [11] 86 % of control

CCOC(=O)C1C(C)OC(=O)C(Br)C1C (centres undefined)
inactive: [2] 97 % of control | [3] 98 % of control | [12] 104 % of control

O=C(NC(=O)C(F)(F)C(F)(F)F)Nc1cccc(F)c1
inactive: dose: 50.0 mg/kg/injection, schedule: Q01DX009 (ip), vehicle: Klucel (hydroxypropylcellulose) (HPC) 116 % of control | dose: 100.0 mg/kg/injection, schedule: Q01DX009 (ip), vehicle: Klucel (hydroxypropylcellulose) (HPC) 122 % of control

CCOC(=O)C1=C(C)NC(C)=C(C(=O)OCC)C1c1ccccc1
inactive: [2] 95 % of control | [12] 95 % of control

O=C(NC1CCCCC1)O/N=C/c1ccccn1
inactive: dose: 100.0 mg/kg/injection, schedule: Q01DX001 (ip), vehicle: other 87 % of control | dose: 400.0 mg/kg/injection, schedule: Q01DX001 (ip), vehicle: other 91 % of control

Cc1nc(Cl)c(C#N)c(C)c1Cl
inactive: dose: 50.0 mg/kg/injection, schedule: Q01DX005 (ip), vehicle: saline with Tween-80 97 % of control | dose: 100.0 mg/kg/injection, schedule: Q01DX005 (ip), vehicle: saline with Tween-80 92 % of control | dose: 200.0 mg/kg/injection, schedule: Q01DX005 (ip), vehicle: saline with Tween-80 94 % of control

O=C1c2ccccc2C(=O)c2c(Sc3ccccc3)cccc21
inactive: [12] 95 % of control

COC1CC(O)C(O)C(C)O1 (centres undefined)
inactive: [2] 97 % of control | dose: 50.0 mg/kg/injection, schedule: Q01DX009 (ip), vehicle: saline 100 % of control | [3] 95 % of control | dose: 100.0 mg/kg/injection, schedule: Q01DX009 (ip), vehicle: saline 107 % of control | [4] 106 % of control | [12] 100 % of control | dose: 200.0 mg/kg/injection, schedule: Q01DX009 (ip), vehicle: saline 118 % of control | [5] 101 % of control | [11] 95 % of control | dose: 400.0 mg/kg/injection, schedule: Q01DX009 (ip), vehicle: saline 99 % of control | [6] 99 % of control

CCCCCCCCCCC[N+](C)(C)CCCCCC[N+](C)(C)CCCCCCCCCCC
inactive: dose: 1.56 mg/kg/injection, schedule: Q01DX009 (ip), vehicle: saline 90 % of control and 108 % of control | dose: 3.12 mg/kg/injection, schedule: Q01DX009 (ip), vehicle: saline 103 % of control | dose: 3.13 mg/kg/injection, schedule: Q01DX009 (ip), vehicle: saline 102 % of control and 118 % of control | dose: 6.25 mg/kg/injection, schedule: Q01DX009 (ip), vehicle: saline 115 % of control and 124 % of control | dose: 12.5 mg/kg/injection, schedule: Q01DX009 (ip), vehicle: saline 93 % of control and 109 % of control

C1=C(c2ccccc2)C(c2ccccc2)C(c2ccccc2)C/C1=N/OCCN1CCCC1 (centres undefined)
inactive: dose: 6.0 mg/kg/injection, schedule: Q01DX009 (ip), vehicle: saline with Tween-80 108 % of control | dose: 6.0 mg/kg/injection, schedule: Q04DX003 (ip), vehicle: saline with Tween-80 118 % of control | [7] 100 % of control | [8] 115 % of control | [9] 107 % of control | [10] 100 % of control

CCCC(Nc1nccs1)Nc1nccs1
inactive: [2] 107 % of control | [3] 101 % of control | [12] 101 % of control

CSc1ccc(OC(=O)Nc2ccc(C)c([N+](=O)[O-])c2)cc1C
inactive: [4] 90 % of control | [5] 95 % of control | [6] 104 % of control
